Test results reported in US9957264B2 (Merck Sharp & Dohme Corp., priority 2013, dated 2018).

Tests used:
[1] = target: JAK1 (recombinant purified GST-tagged catalytic domain) (Homo sapiens (Human), UniProt P23458); test: Jak Biochemical HTRF Assay (JAK1); conditions: [ATP] 31.8 μM
Outline: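 Compounds in DMSO were pre-equilibrated with enzyme and biotinylated peptide, then ATP was added and the reaction proceeded 120 min at room temperature. EDTA-based stop buffer with detection reagents was added, and after 60 min the time-resolved FRET ratio was read. IC50s came from 4-parameter dose–response fits.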

[2] = target: JAK2 (recombinant purified GST-tagged catalytic domain) (Homo sapiens (Human), UniProt O60674); test: Jak Biochemical HTRF Assay (JAK2); conditions: [ATP] 8.5 μM
Sequence of JAK2 (recombinant purified GST-tagged catalytic domain) (O60674 849-1124): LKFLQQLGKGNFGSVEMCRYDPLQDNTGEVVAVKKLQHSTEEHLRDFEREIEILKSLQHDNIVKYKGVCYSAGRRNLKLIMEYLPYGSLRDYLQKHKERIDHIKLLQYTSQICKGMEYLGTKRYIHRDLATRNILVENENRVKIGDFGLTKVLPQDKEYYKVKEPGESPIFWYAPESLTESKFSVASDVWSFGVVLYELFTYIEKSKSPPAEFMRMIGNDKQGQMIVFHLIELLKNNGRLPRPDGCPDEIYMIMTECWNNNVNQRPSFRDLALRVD

Sequence of JAK1 (recombinant purified GST-tagged catalytic domain) (P23458 875-1153): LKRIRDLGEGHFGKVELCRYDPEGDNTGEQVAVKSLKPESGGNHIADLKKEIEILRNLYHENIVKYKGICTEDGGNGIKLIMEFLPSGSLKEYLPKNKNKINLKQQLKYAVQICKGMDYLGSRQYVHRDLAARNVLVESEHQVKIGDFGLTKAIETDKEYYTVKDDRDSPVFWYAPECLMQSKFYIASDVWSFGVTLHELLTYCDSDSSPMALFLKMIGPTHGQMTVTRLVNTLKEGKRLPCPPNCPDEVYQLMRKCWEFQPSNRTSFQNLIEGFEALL

| Compound | IC50 [1] [nM] | IC50 [2] [nM] |
| --- | --- | --- |
| CC(C)(C)OC(=O)N1CCC(CC#N)(n2nc(Nc3ccc4c(c3)CN(CC3CC3)S4(=O)=O)c3c(=O)[nH]ccc32)CC1 [Example 5-68, tert-butyl 4-(cyanomethyl)-4-(3-{[2-(cyclopropylmethyl)-1,1-dioxo-2,3-dihydro-1,2-benzothiazol-5-yl]amino}-4-oxo-1H,4H,5H-pyrazolo[4,3-c]pyridin-1-yl)piperidine-1-carboxylate] | 0.25 | 0.33 |
| Cc1cc(Nc2nn([C@]3(CC#N)CC[C@@H](C(=O)OC(C)(C)C)OC3)c3cc[nH]c(=O)c23)ccc1C(=O)N1CCOC(C)C1 (single isomer, unassigned) [Example 20-11, (2S,5S)-tert-butyl 5-(cyanomethyl)-5-(3-((3-methyl-4-((S or R)-2-methylmorpholine-4-carbonyl)phenyl)amino)-4-oxo-4,5-dihydro-1H-pyrazolo[4,3-c]pyridin-1-yl)tetrahydro-2H-pyran-2-carboxylate] | 0.23 | 0.35 |
| CS(=O)(=O)c1ccc(Nc2nn([C@@]3(CC#N)CCCOC3)c3cc[nH]c(=O)c23)cc1 [Example 5-30, (R)-2-(3-(3-((4-(methylsulfonyl)phenyl)amino)-4-oxo-4,5-dihydro-1H-pyrazolo[4,3-c]pyridin-1-yl)tetrahydro-2H-pyran-3-yl)acetonitrile] | 12.6 | 58 |
| Cc1cccc(Nc2nn(C3(CC#N)CCN(C(=O)OC(C)(C)C)CC3)c3cc[nH]c(=O)c23)c1 [Example 5-65, tert-butyl 4-(3-(m-toluidino)-4-oxo-4,5-dihydropyrazolo[4,3-c]pyridin-1-yl)-4-(cyanomethyl)piperidine-1-carboxylate] | 0.21 | 3.22 |
| CC(O)(c1ccc(Nc2nn([C@]3(CC#N)CCCOC3)c3cc[nH]c(=O)c23)cc1)C(F)(F)F (single isomer, unassigned) [Example 5-110, {(3S)-3-[4-oxo-3-({4-[(1S or 1R)-2,2,2-trifluoro-1-hydroxy-1-methylethyl]phenyl}amino)-4,5-dihydro-1H-pyrazolo[4,3-c]pyridin-1-yl]tetrahydro-2H-pyran-3-yl}acetonitrile] | 0.16 | 0.59 |
| CN(C)S(=O)(=O)c1ccc(Nc2nn([C@@]3(CC#N)CCCOC3)c3cc[nH]c(=O)c23)cc1 [Example 5-29, (R)-4-((1-(3-(cyanomethyl)tetrahydro-2H-pyran-3-yl)-4-oxo-4,5-dihydro-1H-pyrazolo[4,3-c]pyridin-3-yl)amino)-N,N-dimethyl benzenesulfonamide] | 13.5 | 27.7 |
| CC(C)(C)NS(=O)(=O)c1ccc(Nc2nn(C3(CC#N)CCN(C(=O)C(C)(F)F)CC3)c3cc[nH]c(=O)c23)cc1 [Example 5-56, N-(tert-butyl)-4-((1-(4-(cyanomethyl)-1-(2,2-difluoropropanoyl)piperidin-4-yl)-4-oxo-4,5-dihydro-1H-pyrazolo[4,3-c]pyridin-3-yl)amino)benzene-sulfonamide] | 0.12 | 0.19 |
| CC(C)(C)OC(=O)N1CC(CC#N)(n2nc(Nc3ccnc(F)c3)c3c(=O)[nH]ccc32)C1 [Example 5-46, tert-butyl 3-(cyanomethyl)-3-{3-[(2-fluoropyridin-4-yl)amino]-4-oxo-4,5-dihydro-1H-pyrazolo[4,3-c]pyridin-1-yl}azetidine-1-carboxylate] | 3.53 | 43.5 |
| CNS(=O)(=O)c1ccc(Nc2nn(C3(CC#N)CCCC3)c3cc[nH]c(=O)c23)cc1 [Example 5-131, 4-((1-(1-(cyanomethyl)cyclopentyl)-4-oxo-4,5-dihydro-1H-pyrazolo[4,3-c]pyridin-3-yl)amino)-N-methylbenzenesulfonamide] | 0.25 | 0.98 |
| CC(C)(C)OC(=O)[C@@H]1CC[C@@](CC#N)(n2nc(Nc3ccc(C4(C(F)(F)F)CCCCN4)cc3)c3c(=O)[nH]ccc32)CO1 (single isomer, unassigned) [Example 5-286, (2S,5S)-tert-butyl 5-(cyanomethyl)-5-(4-oxo-3-((4-((S or R)-2-(trifluoromethyl)piperidin-2-yl)phenyl)amino)-4,5-dihydro-1H-pyrazolo[4,3-c]pyridin-1-yl)tetrahydro-2H-pyran-2-carboxylate] | 0.24 | 0.33 |
| CC(C)(C)NS(=O)(=O)c1ccc(Nc2nn([C@]3(CC#N)CCCOC3)c3cc[nH]c(=O)c23)cc1 [Example 5-184, N-tert-butyl-4-({1-[(3S)-3-(cyanomethyl)tetrahydro-2H-pyran-3-yl]-4-oxo-4,5-dihydro-1H-pyrazolo[4,3-c]pyridin-3-yl}amino) benzenesulfonamide] | 0.2 | 0.6 |
| Cc1cc(Nc2nn([C@]3(CC#N)CC[C@@H](C(=O)OC(C)(C)C)OC3)c3cc[nH]c(=O)c23)ccc1C(=O)N1CCOC(C)(C)C1 [Example 5-220, (2S,5S)-tert-butyl 5-(cyanomethyl)-5-(3-((4-(2,2-dimethylmorpholine-4-carbonyl)-3-methylphenyl)amino)-4-oxo-4,5-dihydro-1H-pyrazolo[4,3-c]pyridin-1-yl)tetrahydro-2H-pyran-2-carboxylate] | 0.14 | 0.19 |
| COC(=O)N1CCC(CC#N)(n2nc(Nc3ccc(C(C)(O)C(F)(F)F)cc3)c3c(=O)[nH]ccc32)CC1 (single isomer, unassigned) [Example 5-142, (R or S)-methyl 4-(cyanomethyl)-4-(4-oxo-3-((4-(1,1,1-trifluoro-2-hydroxypropan-2-yl)phenyl)amino)-4,5-dihydro-1H-pyrazolo[4,3-c]pyridin-1-yl)piperidine-1-carboxylate] | 0.13 | 0.33 |
| CN(C(=O)[C@@H]1CC[C@@](CC#N)(n2nc(Nc3ccc4c(c3)CN(C(C)(C)C)S4(=O)=O)c3c(=O)[nH]ccc32)CO1)C(C)(C)C [Example 19-2, (2S,5S)-N-tert-butyl-5-{3-[(2-tert-butyl-1,1-dioxido-2,3-dihydro-1,2-benzisothiazol-5-yl)amino]-4-oxo-4,5-dihydro-1H-pyrazolo[4,3-c]pyridin-1-yl}-5-(cyanomethyl)-N-methyltetrahydro-2H-pyran-2-carboxamide] | 0.1 | 2.07 |
| CC(C)(C)OC(=O)N1CCC(CC#N)(n2nc(Nc3ccc(F)cc3)c3c(=O)[nH]ccc32)CC1 [Example 5-48, tert-butyl 4-(cyanomethyl)-4-{3-[(4-fluorophenyl)amino]-4-oxo-4,5-dihydro-1H-pyrazolo[4,3-c]pyridin-1-yl}piperidine-1-carboxylate] | 0.22 | 2.26 |

The remaining molecules from weak to strong by IC50 [1], led by results:

| IC50 [1] [nM] | IC50 [2] [nM] | Compound |
| --- | --- | --- |
| 7.33 | 9.56 | CC(C)(C)OC(=O)N1CCC(CC#N)(n2nc(Nc3ccc(C4(C(F)(F)F)CCN(Cc5ccccc5)C4)cc3)c3c(=O)[nH]ccc32)CC1 (single isomer, unassigned) [Example 5-280, (S or R) tert-butyl 4-(3-((4-(1-benzyl-3-(trifluoromethyl)pyrrolidin-3-yl)phenyl)amino)-4-oxo-4,5-dihydro-1H-pyrazolo[4,3-c]pyridin-1-yl)-4-(cyanomethyl)piperidine-1-carboxylate] |
| 0.97 | 1.95 | CO[C@@H](c1ccc(Nc2nn(C3(CC#N)CCN(C(=O)OC(C)(C)C)CC3)c3cc[nH]c(=O)c23)cc1)C(F)(F)F (single isomer, unassigned) [Example 21-10, tert-butyl 4-(cyanomethyl)-4-[4-oxo-3-({4-[(1S or 1R)-2,2,2-trifluoro-1-methoxyethyl]phenyl}amino)-4,5-dihydro-1H-pyrazolo[4,3-c]pyridin-1-yl]piperidine-1-carboxylate] |
| 0.23 | 1.96 | CN(C)S(=O)(=O)c1ccc(Nc2nn(C3(CC#N)CCN(C(=O)c4cccc(Cl)c4)CC3)c3cc[nH]c(=O)c23)cc1 [Example 9-14, 4-[(1-{1-[(3-chlorophenyl)carbonyl]-4-(cyanomethyl)piperidin-4-yl}-4-oxo-4,5-dihydro-1H-pyrazolo[4,3-c]pyridin-3-yl)amino]-N,N-dimethylbenzenesulfonamide] |
| 0.23 | 4.43 | CN(C)[C@H]1CC[C@](CC#N)(n2nc(Nc3ccc4c(c3)CN(C(C)(C)C)S4(=O)=O)c3c(=O)[nH]ccc32)CC1 [Example 18-37, Trans 2-(1-(3-((2-(tert-butyl)-1,1-dioxido-2,3-dihydrobenzo[d]isothiazol-5-yl)amino)-4-oxo-4,5-dihydro-1H-pyrazolo[4,3-c]pyridin-1-yl)-4-(dimethylamino)cyclohexyl)acetonitrile] |
| 0.14 | 0.18 | CN(C(C)(C)C)S(=O)(=O)c1ccc(Nc2nn(C3(CC#N)CCN(C(=O)C(C)(F)F)CC3)c3cc[nH]c(=O)c23)cc1 [Example 5-58, N-(tert-butyl)-4-((1-(4-(cyanomethyl)-1-(2,2-difluoropropanoyl)piperidin-4-yl)-4-oxo-4,5-dihydro-1H-pyrazolo[4,3-c]pyridin-3-yl)amino)-N-methylbenzenesulfonamide] |
| 0.14 | 3.32 | CC(C)(C)N1Cc2cc(Nc3nn([C@@]4(CC#N)CCOC[C@H]4F)c4cc[nH]c(=O)c34)ccc2S1(=O)=O (single isomer, unassigned) [Example 5-255, 2-((3S,4S or 3R,4R)-4-(3-((2-(tert-butyl)-1,1-dioxido-2,3-dihydrobenzo[d]isothiazol-5-yl)amino)-4-oxo-4,5-dihydro-1H-pyrazolo[4,3-c]pyridin-1-yl)-3-fluorotetrahydro-2H-pyran-4-yl)acetonitrile] |
| 0.09 | 0.35 | CC(O)(c1ccc(Nc2nn([C@]3(CC#N)CCCOC3)c3cc[nH]c(=O)c23)cc1)C(F)(F)F (single isomer, unassigned) [Example 5-111, {(3S)-3-[4-oxo-3-({4-[(1R or 1S)-2,2,2-trifluoro-1-hydroxy-1-methylethyl]phenyl}amino)-4,5-dihydro-1H-pyrazolo[4,3-c]pyridin-1-yl]tetrahydro-2H-pyran-3-yl}acetonitrile] |
